According to patent publication US10550399B2, “Plant transformation method using plant growth inhibiting hormone” (KANEKA CORPORATION, priority 2012, dated 2020):

Legend:
wheat seeds [1] = test: In planta Agrobacterium (LBA4404, pIG121-1) transformation of wheat seeds under application of a plant growth-inhibiting hormone; assay type: in vivo, wheat (Triticum aestivum L.); conditions: for Transformation efficiency (T0 generation×T1 generation): hormone 100 μM in bacterial solution, variety Yumechikara, shoot length about 2 mm, soaked about 20 min, co-culture 22° C. 2 days
Protocol: Transformation efficiency for the transformed plant thus obtained can be determined. Transformation efficiency (T0 generation×T1 generation) is determined by multiplying transformation efficiency for the T0 generation (the number of transformed plants of T0 generation/the number of plants subjected to transformation) and transformation efficiency for the T1 generation (the number of transformed plants of T1 generation/(the number of plants of T1 generation subjected to the verification for incorporation of foreign genes into genomes).
The Agrobacterium into which pIG121-1 had been introduced prepared above were cultured in LB medium containing kanamycin and streptomycin (50 mg/1 each) at 28° C. for 18 hours to prepare an Agrobacterium solution. Through this culture, the transformed Agrobacterium carrying pIG121-1 were selected on the basis of functions of the kanamycin resistance gene and the streptomycin resistance gene existing outside the T-DNA region of pIG121-1.
Abscisic acid (final concentration: 100 μM) was added to the bacterial solution prepared in the manner described above, and the resulting bacterial solution was used below as an Agrobacterium solution for inoculation.
Pretreatment of seeds was carried out by soaking wheat seeds (variety: Yumechikara (Wheat Nourin 172)) in 70% ethanol for 5 minutes, followed by shaking in a 20% antiformin solution for 10 minutes. The seeds were washed with water to remove the antiformin solution, wrapped in moistened Kim towel, and then cultured at 25° C. for 36 to 40 hours for germination.
Subsequently, a portion around the shoot of the seed (shoot length: about 2 mm) was pierced with a needle (diameter: 0.71 mm) to a depth of about 1 mm to provide a pore. The seeds with thus wounded meristems were soaked in the Agrobacterium solution prepared above for about 20 minutes to inoculate the seeds with the Agrobacterium. Thereafter, the seeds were removed from the Agrobacterium solution, mounted on moistened Kim towel, and then cultured in a covered petri dish at 22° C. for 2 days (co-culture). Thus, the seeds were infected with Agrobacterium. Next, in order to disinfect Agrobacterium, the co-cultured seeds were soaked in an aqueous solution of cefotaxime (1,000 ppm) and then shaken at room temperature for 2 hours. Subsequently, the seeds were removed from the aqueous solution of cefotaxime, mounted on moistened Kim towel, and then grown in a covered petri dish at 25° C. for 2 days. The seeds were transferred to a pot containing culture soil and then grown at 25° C. under the long-day conditions (a light period of 16 hours and a dark period of 8 hours).
When the seeds grew to the 5- to 6-leaf stage, genome PCR was carried out to select transformants.
Considering that Yumechikara is an autumn wheat variety, the obtained transformants were subjected to vernalization at 4° C. for 1.5 months to facilitate flower bud formation. Subsequently, the transformants (T0 generation) were self-crossed to obtain T1 seeds, and gene introduction and gene expression in the T1 generation were verified.
Gene introduction at the T1 generation was verified via genome PCR under the same conditions as with the case of the T0 generation. […] A band of interest was detected in 3 of the 14 individuals subjected to the genome PCR.
Jasmonic acid (final concentration: 100 μM) was added to the bacterial solution prepared in the manner described above, and the resulting bacterial solution was used below as an Agrobacterium solution for inoculation.
Subsequently, a portion around the shoot of the seed (shoot length: about 2 mm) was pierced with a needle (diameter: 0.71 mm) to a depth of about 1 mm to provide a pore. The seeds with thus wound meristems were soaked in the Agrobacterium solution prepared above for about 20 minutes to inoculate the seeds with the Agrobacterium. […]

[2] = test system: soybeans, variety "Toyomusume"; test: In planta Agrobacterium (LBA4404, pIG121-1) transformation of soybean axillary buds with abscisic acid; assay type: in vivo, soybean (Glycine max); conditions: abscisic acid 100 μM, axillary buds of plants 14 days after germination
Protocol: Plant transformation was carried out in the same manner as in Example 1, except that a variety “Toyomusume” of soybeans was used and axillary buds of the plants 14 days after germination were inoculated with Agrobacterium, and then gene introduction and gene expression in the T0 generation were verified.

[3] = test system: soybeans, variety "Toyomusume"; test: In planta transformation of soybeans using the Agrobacterium tumefaciens M21 mutant with abscisic acid; assay type: in vivo, soybean (Glycine max); conditions: abscisic acid 100 μM
Protocol: Plant transformation was carried out in the same manner as in Example 8, except that the Agrobacterium tumefaciens M21 mutant was used, and then gene introduction in the T0 generation was verified.
The Agrobacterium tumefaciens M21 mutant (hereafter referred to as “the M21 mutant”) was obtained via mutation of the Agrobacterium tumefaciens A208 strain (C58 chromosome, nopaline T37 pTi) with the use of transposon 5 (Tn5) (Majumder, P. et al., J. Biosci. Bioeng., 90: 328-331, 2000; WO 2005/024034). In the M21 mutant, Tn5 is inserted into the tryptophan monooxygenase gene involved in biosynthesis of indoleacetic acid (IAA) in the T-DNA region of the Ti plasmid. This would cause hormone imbalance in plants transformed via infection with the M21 mutant, which would lead to phenotypic changes. Thus, the presence or absence of the transformation was easily determined via visual inspection.
Transformation efficiency (T0 generation) achieved by the method of the present invention was 75%.

maize seed = test: In planta transformation of maize seeds using pIG121-1-carrying Agrobacterium with abscisic acid; assay type: in vivo, maize (Zea mays); conditions: abscisic acid 100 μM
Protocol: Seeds of maize (Zea mays) were washed with sterile water 2 or 3 times to wash the red disinfectant away from the seed coat. The washed seeds were soaked in sterile water and incubated at 25° C. for 2 days. Water was exchanged with fresh water once during incubation. Thus, the seeds absorbed water and the embryonic portions became white. These seeds were used for the experiment described below. A bacterial solution containing pIG121-1-carrying Agrobacterium and abscisic acid (final concentration: 100 μM) was prepared as an Agrobacterium solution for inoculation in the same manner as in Example 1.
With the use of a needle (φ 0.71 mm), the shoot (length: 1 mm) of the embryo (longer diameter: about 1 cm) of the maize seed was pierced 4 times on the apex, in which the meristem was considered to be present, to a depth of 0.5 mm to 1 mm to provide 4 pores in an area of about 2 mm square. Thereafter, the Agrobacterium solution for inoculation prepared above was applied dropwise to the pores using a pipette to inoculate the seeds with Agrobacterium.
Subsequently, a filter paper was placed in a petri dish and moistened with water. The maize seeds inoculated with Agrobacterium were placed on the filter paper and the petri dish was covered. The petri dish was then placed in an incubator at 25° C., and incubation was carried out in the dark for 2 days. After co-culture was conducted for 2 days, the seeds were sowed in culture soil and grown.
Gene introduction in the T0 generation was verified in the same manner as in Example 1. Plants (5-leaf stage) 20 days after transformation were used for genomic PCR. […] A 544-bp PCR product indicating GUS gene introduction was detected in 2 plants.

wheat seeds [4] = test: In planta Agrobacterium (LBA4404, pIG121-1) transformation of wheat seeds under application of a plant growth-inhibiting hormone; assay type: in vivo, wheat (Triticum aestivum L.)
[5] = abscisic acid 100 μM, Yumechikara, shoot about 2 mm, co-culture 22° C., genome PCR
[6] = 12 plants subjected to transformation
[7] = 13 plants subjected to transformation

| SMILES | Transformation efficiency (T0) (wheat seeds [1]; [5]) | Transformation efficiency (T1) (wheat seeds [1]; [5]) | Individuals with band of interest, T1 generation (wheat seeds [1]; abscisic acid 100 μM, of the 14 individuals subjected to genome PCR) | Individuals with GUS gene band (544 bp), T0 generation (wheat seeds [1]; abscisic acid 100 μM, of the 14 transformed individuals, genome PCR) | Transformation efficiency (T0 generation×T1 generation) (wheat seeds [1]) | Transformation efficiency (T0 generation) [2] | Number of transformed plants [3, 6] | Number of untransformed plants [3, 6] | Untransformed plants, percent [3, 6] | Transformation efficiency (T0 generation) ([3]; axillary buds, tumorigenesis by visual inspection, 12 plants) | Number of untransformed plants (maize seed; [7]) | Untransformed plants, percent (maize seed; [7]) | Number of transformed plants (maize seed; 13 plants subjected to transformation, 544-bp GUS PCR product) | Transformation efficiency (T0 generation) (maize seed; shoot 1 mm pierced 4 times, co-culture 25° C. 2 days, genomic PCR 20 days after transformation, 13 plants) | Transformation efficiency (T0 generation×T1 generation) (wheat seeds [4]; abscisic acid 100 μM and Tween 20 0.1%, Yumechikara, shoot 1 mm or less, vacuum treatment 20 min, co-culture 28° C.) | Transformation efficiency (T0 generation×T1 generation) (wheat seeds [4]; abscisic acid 100 μM, Tween 20 0.1%, acetosyringone 100 μM, Yumechikara, shoot 1 mm or less, vacuum treatment, co-culture 28° C.) | Transformation efficiency (T0 generation×T1 generation) (wheat seeds [4]; as Example 4 (abscisic acid 100 μM, Tween 20, acetosyringone, vacuum, 28° C.) but wheat variety Haruyokoi) | Transformation efficiency (T0 generation×T1 generation) (wheat seeds [4]; as Example 4 but 10 μM abscisic acid, Yumechikara) | Transformation efficiency (T0 generation×T1 generation) (wheat seeds [4]; as Example 4 but 300 μM abscisic acid, Yumechikara) |
| --- | --- | --- | --- | --- | --- | --- | --- | --- | --- | --- | --- | --- | --- | --- | --- | --- | --- | --- | --- |
| CC1=CC(=O)CC(C)(C)[C@@]1(O)/C=C/C(C)=C\C(=O)O [abscisic acid] | 14.3% | 21.4% | 3 | 2 | 3.1% | 30% | 9 | 3 | 25% | 75% | 11 | 84.6% | 2 | 15.4% | 5.1% | 7.2% | 10.2% | 6.3% | 7.0% |
| CC/C=C\C[C@H]1C(=O)CC[C@@H]1CC(=O)O [jasmonic acid] | – | – | – | – | 2.4% | – | – | – | – | – | – | – | – | – | – | – | – | – | – |
